Experiments:
MDSCs [1] = assay: NO^− and ROS production by MDSCs of treated CRC-mice (flow cytometry); assay type: in vivo, mouse
Method: Three weeks after the second DSS treatment mice were sacrificed and spleens were analyzed.

MDSC = conditions: mice, reference (11); cited from earlier work
cleaved caspase-3 [2] = assay: Cleaved caspase-3 in splenic MDSCs of treated CRC-mice; assay type: in vivo, mouse
Method: Cleaved caspase-3 staining was performed using primary Rabbit anti-cleaved caspase-3 (Cell Signaling Technology, Asp175) and secondary FITC-horse anti-Rabbit antibody (Thermo Scientific).
Therefore, Splenic MDSCs from each group were analyzed for the expression of activated (cleaved) caspase-3 by flow cytometry analysis. […] Cleaved caspase-3 levels were then evaluated on the primary MDSCs, differentiated CD11c^+CD11b^+DCs and F4/80^+CD11b^+ macrophages.

[3] = test system: MDSCs isolated from spleens of CRC-mice; assay: NO^− and ROS production in ex vivo cultured MDSCs; assay type: cell-based, mouse; conditions: 2.5 μmol/L, 24 h
NK-cells = assay: BCG chronic inflammation mouse model: NK-cell mediated clearance of allogeneic cells; assay type: in vivo; conditions: spleen and PBLs of inflamed mice
cleaved caspase-3 [4] = assay: BCG chronic inflammation mouse model: cleaved caspase-3 in MDSCs; assay type: in vivo; conditions: compared to inflamed-untreated mice
CRC-derived MDSC = assay: Ex vivo GM-CSF mediated myeloid-cell differentiation; assay type: cell-based, mouse; conditions: 10 ng/ml GM-CSF, 72 h, vs GM-CSF only
CD247 [5] = assay: BCG chronic inflammation mouse model: CD247 expression in T-cells; assay type: in vivo; conditions: spleen and PBLs of inflamed mice
Method: (§1) Mice were injected intraperitoneally with 10 mg/kg body weight of Azoxymethan (AOM, purchased from Sigma-Aldrich (St. Louis, Mo., USA)) dissolved in physiological saline twice in two weeks intervals. Two weeks later, 2% dextran sulfate sodium (DSS, purchased from MP biochemicals Inc. (Santa Ana, Calif., USA)) was given in the drinking water over 7 days, followed by 14 days of regular water (15). This cycle was repeated twice. Animals were sacrificed and analyzed three weeks after the last treatment. To induce a pathology-free chronic inflammation, a previously described protocol subjecting mice to heat-killed Mycobacterium […] (BCG) treatment (16) was used.
(§2) Next, it was assessed whether the 5FU and CPT11 opposite effects on MDSCs have different impacts on the host's immune competence. […] Since NK-cell activity is mediated via natural cytotoxicity receptors (NCRs), which associate with and depend on CD247, NK-cell in vivo function was assessed by monitoring the clearance of adoptively transferred allogeneic cells.

MDSCs [6] = assay: Myeloid cell differentiation in vivo in CRC-mice
Method: Isolated mouse splenocytes and peripheral blood lymphocytes (PBLs) were subjected to cell surface staining as previously described (16), using the following antibodies (Biolegend): FITC-labeled anti-Gr1, and anti-CD11c; PE-labeled anti-F4/80, anti-CD3s, and anti-mNKp46; and biotinylated anti-CD11b detected with streptavidin-Cy5. Intracellular staining for CD247 was performed as previously described (16) by using FITC-labeled anti-CD247 or biotinylated anti-CD247 (lone H146), the latter detected with streptavidin-Cy5. Foxp3 staining was performed according to the manufacturer's instructions (Miltenyi Biotec). Cleaved caspase-3 staining was performed using primary Rabbit anti-cleaved caspase-3 (Cell Signaling Technology, Asp175) and secondary FITC-horse anti-Rabbit antibody (Thermo Scientific).
(§5) For that purpose the expression of the S100A8/9 pro-inflammatory proteins was assessed.

CD247 [7] = assay: BCG chronic inflammation mouse model: CD247 expression in NK-cells; assay type: in vivo; conditions: chronically inflamed mice
Method: as §1, §2

T-cells [8] = assay: CFSE T-cell proliferation assay, splenocytes of CRC-mice; assay type: in vivo, mouse; conditions: CFSE-labeled Thy1.2^+ T-cells, TCR-CD28 mediated activation, vs untreated CRC-mice
Method: (§3) Splenocytes or purified T-cells isolated by a magnetic column separation system (Miltenyi Biotec) were labeled with 5 M CFSE (Invitrogen) and subjected to TCR-mediated activation as previously described (16). Next, the effect of the given chemotherapies on the immune status was evaluated. This was performed by testing the function of the whole T-cell population (FIG. 9J) as well as the CD8^+ T-cells (FIG. 9K) in all experimental groups along with measurements of the expression levels of CD247 in CD3^+ (FIG. 9L) and in CD8^+ T-cells (FIG. 9M). T-cell proliferative response was assessed by monitoring cell divisions of gated CFSE-labeled Thy1.2^+ (CD90^+) T-cells upon TCR-CD28 mediated activation.

T-cells [9] = assay: BCG chronic inflammation mouse model: T-cell proliferation; assay type: in vivo; conditions: splenocytes of inflamed mice
Method: as §1
Splenocytes or purified T-cells isolated by a magnetic column separation system (Miltenyi Biotec) were labeled with […] CFSE (Invitrogen) and subjected to TCR-mediated activation as previously described (16).
as §2

[10] = test system: MDSCs isolated from spleens of CRC mice; assay: Cleaved caspase-3 in ex vivo cultured MDSCs, DCs and macrophages; assay type: cell-based, mouse
TNFα, S100A9 = assay: TNFα and S100A9 mRNA in ex vivo cultured MDSCs (Real Time PCR); assay type: cell-based, mouse; conditions: 3 days
CD247 [11] = assay: CD247 expression in T-cells of CRC-mice; assay type: in vivo, mouse; conditions: splenocytes of CRC-mice
Method: as §3, with “Next,” for “Splenocytes or purified T-cells isolated by a magnetic column separation system (Miltenyi Biotec) were labeled with 5 M CFSE (Invitrogen) and subjected to TCR-mediated activation as previously described (16). Next,”

S100A8/9 = conditions: MDSCs from spleen of CRC-mice
Method: Cells isolated from the spleen or colon were analyzed by Western blotting for the expression of various proteins as previously described (16). The antibodies used for immunoblotting were: anti-S100A9, anti-S100A8, and anti-αTubulin. Specific antibodies were detected by anti-rabbit or anti-goat antibodies conjugated to horseradish peroxidase (Jackson Immunoresearch), followed by enhanced chemiluminescence and exposure at blotting reader (Bio-Rad software).
as §5

MDSCs [12] = assay: BCG chronic inflammation mouse model: MDSC levels; assay type: in vivo; conditions: PBLs and spleen, compared to inflamed-untreated mice
Method: as §1
(§4) Next, the immunoregulatory effects of 5FU and CPT11 were examined in a mouse model for chronic inflammation and associated immunosuppression (10), as described in the materials and method section above and in FIG. 13A. This experiment was performed in order to investigate whether the differential effects of the drugs are related to the presence of the tumor. Briefly, the mouse model for chronic inflammation was established by three repeated injections of heat-killed BCG bacteria. A day after the second BCG injection, mice were treated twice a week with 5FU, CPT11 or a 5FU/CPT11 combination. […] No changes in CD4^+Foxp3^+ Tregs percentage were detected (FIG. 13H), confirming that these chemotherapies specifically affect MDSCs.

Gr1^+CD11b^+ MDSCs = assay: MDSC accumulation in colon, spleen and PBLs of CRC-mice; assay type: in vivo, mouse
MDSCs [13] = assay: BCG chronic inflammation mouse model: ROS and NO^− production by MDSCs; assay type: in vivo; conditions: splenic MDSCs, compared to inflamed-untreated mice
Method: as §1, §4

SMILES: O=c1[nH]cc(F)c(=O)[nH]1 [5FU, 5-fluoruracil]
- NO^− production (MDSCs [1]; lamina propria and epithelial MDSCs, vs untreated CRC mice): significant reduction of NO^− production
- NO^− and ROS production (MDSCs [1]; splenic MDSCs, compared to untreated CRC-mice): significantly reduced NO^− and ROS production
- MDSC apoptosis and tumor regression (MDSC): selective MDSC apoptosis and tumor regression
- cleaved caspase-3 expression in spleen MDSCs (cleaved caspase-3 [2]): significant increased cleaved caspase-3 expression
- NO^− or ROS production in purified cultured MDSCs [3]: did not alter NO^− or ROS production
- NK-cell activity (clearance of adoptively transferred allogeneic cells) (NK-cells): complete recovery of NK-cell activity
- tumor load within the colon (hematoxylin-eosin histopathology) (CRC-mice; monotherapy for three weeks, vs untreated CRC mice): decreased tumor load and recovery of colon architecture
- histopathological analysis of colon sections (hematoxylin-eosin) (CRC-mice; three weeks after second DSS treatment): only few aberrant crypt foci and tumors
- cleaved caspase-3 levels (cleaved caspase-3 [4]): elevated cleaved caspase-3 levels
- GM-CSF mediated CRC-derived MDSC differentiation (CRC-derived MDSC): enabled MDSC differentiation to DCs and macrophages
- CD247 expression in T-cells (CD247 [5]): significant recovery of CD247 expression
- matured antigen presenting cells (CD80 and MHCII expression) (MDSCs [6]): induced CD80 and MHCII expression
- myeloid cell differentiation in vivo (DCs and macrophages) (MDSCs [6]): significant shift towards differentiated DCs and macrophages
- CD247 expression in NK-cells (CD247 [7]): almost completely recovered
- T-cell proliferative ability (T-cells [8]): did not affect T-cell proliferation
- T-cell proliferation (T-cells [9]): significant recovery
- 5FU-induced apoptosis (cleaved caspase-3), DCs and macrophages ([10]; ex vivo, 10 ng/ml GM-CSF, 0, 1.25, 2.5, and 5, 3 days): insensitive
- 5FU-induced apoptosis (cleaved caspase-3), primary MDSCs ([10]; ex vivo, 10 ng/ml GM-CSF, 0, 1.25, 2.5, and 5 mol/L, 3 days): evident only in non-differentiated MDSCs
- cleaved caspase-3 expression (MFI) in monocytic and granulocytic MDSCs ([10]; ex vivo, 2.5, 3 days, monocytic population more sensitive): enhanced cleaved caspase-3 expression
- cleaved caspase-3 in purified cultured MDSCs ([10]; ex vivo, various doses, 3 days, dose-dependent): cleaved caspase-3 up-regulation
- mRNA levels of TNFα and S100A9 (TNFα, S100A9): decreased levels of these factors
- CD247 expression levels in T-cells (CD247 [11]): elevated levels
- S100A8/9 mRNA and protein levels (S100A8/9): significant decrease in S100A8/9 mRNA and protein levels
- MDSC levels (MDSCs [12]): significantly reduced MDSC levels
- MDSC numbers / infiltration in colon (Gr1^+CD11b^+ MDSCs; lamina propria and epithelium, flow cytometry, vs untreated CRC-mice): significantly reduced MDSC infiltration
- MDSC numbers in spleens (Gr1^+CD11b^+ MDSCs; vs untreated, CPT11 or 5FU/CPT11 treated CRC-mice): significantly decreased MDSC numbers
- ROS and NO^− production (MDSCs [13]): significantly reduced

Source: US20170261507A1, “Methods for Predicting and Monitoring Cancer Patients' Response to Teatment by Measuring Myeloid Derived Suppressor Cells (MDSCs)” (YISSUM RESEARCH DEVELOPMENT COMPANY OF THE HEBREW …, priority 2014, published 2017)
